Reference: PubChem BioAssay AID248 (DTP/NCI, 2004)
Values joined by “and” are separate entries in the source; they are usually repeats but may differ in a detail not shown here. Identical values can stand only once. Inconclusive results and toxic doses are left out. Rule as the data show it: active = T/C of 150% or more; inactive = T/C below 125%.

Test system: L1210 leukemia ip in BDF1 mice, survival T/C
Test: NCI In Vivo Anticancer Drug Screen. Data for tumor model L1210 Leukemia (intraperitoneal) in B6D2F1 (BDF1) mice
Conditions: endpoint: mean survival time, higher = longer survival
Summary of the method: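 Each compound was tested against a transplantable tumor grown in mice. The endpoint was survival, with treated animals benchmarked against vehicle controls as a simple ratio.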

[1] = dose: 100.0 mg/kg/injection, schedule: Q01DX009 (ip), vehicle: saline
[2] = dose: 200.0 mg/kg/injection, schedule: Q01DX009 (ip), vehicle: saline
[3] = dose: 400.0 mg/kg/injection, schedule: Q01DX009 (ip), vehicle: saline
[4] = dose: 50.0 mg/kg/injection, schedule: Q01DX001 (ip), vehicle: saline
[5] = dose: 100.0 mg/kg/injection, schedule: Q01DX001 (ip), vehicle: saline
[6] = dose: 200.0 mg/kg/injection, schedule: Q01DX001 (ip), vehicle: saline
[7] = dose: 400.0 mg/kg/injection, schedule: Q01DX001 (ip), vehicle: saline
[8] = dose: 100.0 mg/kg/injection, schedule: Q01DX009 (ip), vehicle: Klucel (hydroxypropylcellulose) (HPC)
[9] = dose: 100.0 mg/kg/injection, schedule: Q04DX003 (ip), vehicle: Klucel (hydroxypropylcellulose) (HPC)
[10] = dose: 200.0 mg/kg/injection, schedule: Q01DX009 (ip), vehicle: Klucel (hydroxypropylcellulose) (HPC)
[11] = dose: 200.0 mg/kg/injection, schedule: Q04DX003 (ip), vehicle: Klucel (hydroxypropylcellulose) (HPC)
[12] = dose: 400.0 mg/kg/injection, schedule: Q01DX009 (ip), vehicle: Klucel (hydroxypropylcellulose) (HPC)
[13] = dose: 400.0 mg/kg/injection, schedule: Q04DX003 (ip), vehicle: Klucel (hydroxypropylcellulose) (HPC)
[14] = dose: 100.0 mg/kg/injection, schedule: Q04DX002 (ip), vehicle: Klucel (hydroxypropylcellulose) (HPC)
[15] = dose: 200.0 mg/kg/injection, schedule: Q04DX002 (ip), vehicle: Klucel (hydroxypropylcellulose) (HPC)
[16] = dose: 400.0 mg/kg/injection, schedule: Q04DX002 (ip), vehicle: Klucel (hydroxypropylcellulose) (HPC)
[17] = dose: 25.0 mg/kg/injection, schedule: Q01DX009 (ip), vehicle: saline
[18] = dose: 50.0 mg/kg/injection, schedule: Q01DX009 (ip), vehicle: saline
[19] = dose: 100.0 mg/kg/injection, schedule: Q04DX003 (ip), vehicle: saline
[20] = dose: 200.0 mg/kg/injection, schedule: Q04DX003 (ip), vehicle: saline
[21] = dose: 25.0 mg/kg/injection, schedule: Q01DX009 (ip), vehicle: Klucel (hydroxypropylcellulose) (HPC)

Measured: T/C

Cc1cc(Cl)ccc1OCC(=O)OCCC1=CCC2CC1C2(C)C (configuration not stated)
inactive: [1] 94 % of control | [2] 100 % of control | [3] 102 % of control

O=C(CCCC(=O)N/N=C/c1ccc(Cl)c([N+](=O)[O-])c1)N/N=C\c1ccc(Cl)c([N+](=O)[O-])c1
inactive: [4] 96 % of control | [5] 102 % of control | [6] 96 % of control | [7] 98 % of control

CCN(CC)CCN1C(=O)c2ccc3c4c(ccc(c24)C1=O)C(=O)N(CCN(CC)CC)C3=O
inactive: dose: 6.25 mg/kg/injection, schedule: Q01DX001 (ip), vehicle: saline 105 % of control | dose: 12.5 mg/kg/injection, schedule: Q01DX001 (ip), vehicle: saline 98 % of control

Nc1nc(N)c2ncn(C3CC(O)C(CO)O3)c2n1 (configuration not stated)
inactive: [4] 96 % of control | [5] 110 % of control | [6] 90 % of control | [7] 96 % of control

O=CNC(c1ccccc1)(c1ccccc1)c1ccccc1
inactive: [8] 99 % of control | [9] 102 % of control | [10] 91 % of control | [11] 94 % of control | [12] 91 % of control | [13] 102 % of control

Cc1ncc(CO)c(C2NOCc3ccc(Cl)cc32)c1O (configuration not stated)
inactive: dose: 100.0 mg/kg/injection, schedule: Q04DX003 (ip), vehicle: acetone 104 % of control

S=C(Nc1ccc(Cl)cc1)NC1CC2C=CC1C2 (configuration not stated)
inactive: dose: 100.0 mg/kg/injection, schedule: Q04DX002 (ip), vehicle: saline with Tween-80 101 % of control | dose: 200.0 mg/kg/injection, schedule: Q04DX002 (ip), vehicle: saline with Tween-80 93 % of control

Cn1c(=O)n(O)c(=O)c2ccccc21
inactive: dose: 50.0 mg/kg/injection, schedule: Q01DX001 (ip), vehicle: saline with Tween-80 96 % of control | dose: 100.0 mg/kg/injection, schedule: Q01DX001 (ip), vehicle: saline with Tween-80 109 % of control | dose: 200.0 mg/kg/injection, schedule: Q01DX001 (ip), vehicle: saline with Tween-80 91 % of control

Nc1nc2nc3c(nc2c(=O)[nH]1)C(=O)N(c1ccc(C(=O)O)cc1)C3
inactive: [5] 103 % of control | [6] 103 % of control

O=C(O)COc1cccc2ccc(Cl)cc12
inactive: [14] 101 % of control | [15] 90 % of control | [16] 96 % of control

CCOc1ccc(/C=N/N=C(N)N)cc1OCC
inactive: dose: 62.5 mg/kg/injection, schedule: Q01DX Z (oral), vehicle: saline 110 % of control | dose: 125.0 mg/kg/injection, schedule: Q01DX Z (oral), vehicle: saline 114 % of control | dose: 250.0 mg/kg/injection, schedule: Q01DX Z (oral), vehicle: saline 91 % of control

CCN(CC)c1ccc(N=C2C=C(C(=O)Nc3ccc(S(C)(=O)=O)cc3)C(=O)c3ccccc32)c(C)c1
inactive: [5] 92 % of control | [6] 96 % of control | [7] 96 % of control

CCOc1ccc([N+](=O)[O-])cc1C1N(Cc2ccc(OC)cc2)CCCN1Cc1ccc(OC)cc1
inactive: dose: 100.0 mg/kg/injection, schedule: Q01DX001 (ip), vehicle: acetone 100 % of control | dose: 200.0 mg/kg/injection, schedule: Q01DX001 (ip), vehicle: acetone 94 % of control | dose: 400.0 mg/kg/injection, schedule: Q01DX001 (ip), vehicle: acetone 94 % of control

CCCCn1c(C)nc2c([N+](=O)[O-])cc(C(F)(F)F)cc21
inactive: dose: 100.0 mg/kg/injection, schedule: Q01DX001 (ip), vehicle: Klucel (hydroxypropylcellulose) (HPC) 104 % of control | dose: 400.0 mg/kg/injection, schedule: Q01DX001 (ip), vehicle: Klucel (hydroxypropylcellulose) (HPC) 98 % of control

C#CCOCC1CNC(=O)O1 (configuration not stated)
inactive: [17] 95 % of control | dose: 25.0 mg/kg/injection, schedule: Q04DX003 (ip), vehicle: saline 103 % of control | [18] 96 % of control | dose: 50.0 mg/kg/injection, schedule: Q04DX003 (ip), vehicle: saline 105 % of control | [1] 96 % of control | [19] 97 % of control | [2] 101 % of control | [20] 100 % of control | [3] 91 % of control | dose: 400.0 mg/kg/injection, schedule: Q04DX003 (ip), vehicle: saline 105 % of control

COc1cc2c(c(OC)c1OC)-c1ccc(SCc3ccccc3)c(=O)cc1[C@@H](NC(C)=O)CC2
inactive: dose: 6.25 mg/kg/injection, schedule: Q01DX009 (ip), vehicle: Klucel (hydroxypropylcellulose) (HPC) 106 % of control | dose: 8.2 mg/kg/injection, schedule: Q01DX009 (ip), vehicle: Klucel (hydroxypropylcellulose) (HPC) 121 % of control | dose: 12.5 mg/kg/injection, schedule: Q01DX009 (ip), vehicle: Klucel (hydroxypropylcellulose) (HPC) 124 % of control | dose: 18.0 mg/kg/injection, schedule: Q01DX009 (ip), vehicle: Klucel (hydroxypropylcellulose) (HPC) 101 % of control | [21] 115 % of control and 92 % of control

Cc1ccc(NC(=O)c2ccccc2C(=O)O)cc1Cl
inactive: [8] 93 % of control | [9] 96 % of control | [10] 98 % of control | [11] 93 % of control | [12] 95 % of control | [13] 96 % of control

CN(C)C(=S)S
inactive: [4] 100 % of control | dose: 50.0 mg/kg/injection, schedule: Q04DX002 (ip), vehicle: Klucel (hydroxypropylcellulose) (HPC) 103 % of control | [5] 100 % of control | [14] 103 % of control | [6] 100 % of control | [15] 100 % of control | [7] 100 % of control | [16] 96 % of control

C(Cc1ccccc1)=Nc1ccc(N=CCc2ccccc2)cc1
inactive: [5] 103 % of control | [6] 112 % of control | [7] 110 % of control

Cc1cc(SCC(=O)c2ccc(Br)cc2)cc(C)[o+]1
inactive: [17] 92 % of control | [18] 107 % of control | [1] 100 % of control | [19] 97 % of control | [20] 92 % of control

CCN(CC)CC#CCN(CC)CC
inactive: dose: 50.0 mg/kg/injection, schedule: Q01DX009 (ip), vehicle: saline with Tween-80 92 % of control | dose: 100.0 mg/kg/injection, schedule: Q01DX009 (ip), vehicle: saline with Tween-80 97 % of control | dose: 100.0 mg/kg/injection, schedule: Q04DX003 (ip), vehicle: saline with Tween-80 102 % of control | dose: 200.0 mg/kg/injection, schedule: Q04DX003 (ip), vehicle: saline with Tween-80 90 % of control

O=C(CCCCC(=O)Nc1ccc(C(=O)Nc2cc(C3=NCCN3)cc(C3=NCCN3)c2)cc1)Nc1ccc(C(=O)Nc2cc(C3=NCCN3)cc(C3=NCCN3)c2)cc1
inactive: dose: 35.0 mg/kg/injection, schedule: Q01DX Z (ip), vehicle: saline 102 % of control | dose: 55.0 mg/kg/injection, schedule: Q01DX Z (ip), vehicle: saline 103 % of control

O=C(O)COc1ccc(Cl)cc1CC(Cl)CCl (configuration not stated)
inactive: [21] 97 % of control | dose: 50.0 mg/kg/injection, schedule: Q01DX009 (ip), vehicle: Klucel (hydroxypropylcellulose) (HPC) 119 % of control | [8] 97 % of control and 100 % of control
